Assay results published in patent publication US9642922B2, “Caspase-triggered nano-aggregation probes and methods of use” (The Board of Trustees of the Leland Stanford Junior …, priority 2013, dated 2017).
Numbered stars: 1 amine (or outer) side, 2 acyl side, 3 side chain; on linkers, the order of the positions; unused ones are H or OH. Square brackets hold non-standard residues; d marks the D form. Peptide text beside a SMILES is read from it. * marks the point of attachment. DOTA = O=C(O)CN1CCN(CC(=O)O)CCN(CC(=O)*)CCN(CC(=O)O)CC1; X1 = O=C(C1CSC(c2nc3ccc(N[*:1])cc3s2)=N1)[*:2]; X2 = N#Cc1ccc2cc(OCCCN*)ccc2n1; SEt = CCS*

Tests used:
apoptotic cells = experiment: Two-photon laser confocal microscopy of europium analogue in HeLa cells; type: cell-based, human; conditions: same conditions as probe 15 uptake
caspase-3/7 activity = experiment: CASPASE-GLO 3/7 assay in saline- and 3×DOX-treated tumor lysates; type: in vivo, mouse; conditions: 3×DOX 8 mg/kg i.v.
Method: HeLa tumor xenografted mice were treated with saline or 3×DOX (8 mg/Kg). After treatment, the mice were sacrificed, and the tumors were resected and lysed with RIPA buffer (1 g tissue/1 ml buffer). The solution was homogenized for 1 min on ice, three times. The lysed solution was kept on ice for another 30 min, and centrifuged at 14,000×g for 30 min at 4° C. The supernatant was collected, and the protein concentration was measured using Bradford assay with BSA as standard. The caspase-3/7 activity in the lysed solution was measured by CASPASE-GLO® 3/7 assay, and normalized to the protein concentration.

caspase-3 level = experiment: Caspase-3 level in DOX-treated HeLa tumors; type: in vivo, mouse; conditions: 0.2 mg DOX intratumoral, 4 days
Method: Mice were injected subcutaneously on the right shoulder with an estimated 1-2 million HeLa cells. The HeLa cells were allowed to establish a tumor xenograft and to grow to the size of 1 cm in diameter. A subset of the mice was treated with intratumoral injections of 0.2 mg (in 20 μL) doxorubicin. Four days later, the animals were killed, the tumors removed and quickly frozen using dry ice. The following day, tumors were cut into small pieces, weighted and 1 mL/g Riba buffer was added. They were kept on ice for 30 min and then homogenized with a sonicator (Bronson Sonifier 150). The lysed tumor solutions were centrifuged at 11,750×g for 15 min at 4° C. The supernatant was analyzed for caspase-3 activity using the CASPASE-GLO® kit (Promega) and for protein concentration using the standard BSA absorption assay.

caspase-3 activity = experiment: Caspase-3 level in Dox-treated HeLa cells; type: cell-based, human; conditions: Dox 2 μM, 24 h
Method: HeLa cells were incubated with different concentrations of doxorubicin (0, 1, 2 and 5 μM) and the cell/Tryp-LE solution was centrifuge at 11,750×g for 5 min, the supernatant was removed and 1 mL/g Riba buffer (Sigma) was added. The cells were left for 15 min on ice and homogenized with a sonicator (Bronson Sonifier 150) and the suspension was analyzed for Caspase-3 activity with a CASPASE-GLO® kit from Promega.
PET tracer 1 was applied to detect caspase-3 in apoptotic cells in vitro. HeLa cells were incubated with doxorubicin (Dox) (2 μM) for 24 h to induce apoptosis. […] Both Dox-treated and non-treated cells were then incubated with 1 for 4 h.

HeLa tumor xenograft = experiment: Tumor size monitoring in HeLa xenograft chemotherapy model; type: in vivo, mouse; conditions: 3×DOX 8 mg/kg i.v.
Method: (§1) To establish tumors in 6-week-old female nu/nu mice, 2×10^6 HeLa cells suspended in 50 μL of a 50% v/v mixture of Matrigel in supplemented DMEM (10% FBS, 1% penstrep) were injected subcutaneously in the shoulders of the mouse. Tumors were grown until a single aspect was 0.7 to 0.9 cm (approximately 10-15 days), and then treatment consisting of 8 mg/kg DOX or saline was initiated. Treatments were administered intravenously once every 4 d for a total of three times. Total mouse body weight and tumor size (width and length by caliper) was measured every other day. Tumor volumes were calculated assuming ellipsoid shape with the formula (l×w^2)/2.

apoptotic HeLa cells = experiment: Epifluorescence microscopy of apoptotic HeLa cells labeled with probes; type: cell-based, human; conditions: microscopy, 2 μM probe
Method: After removal of the medium, the cells were incubated with C-SNAF, L-ctrl, or D-ctrl at 2 μM for 24 h. Some cells were first incubated with caspase inhibitor (Z-VAD-fmk, 50 μM) for 30 min, followed by incubating with 2 μM C-SNAF for 24 h. The cells were carefully washed with PBS (1×) three times, and stained with Hoechst 33342 (2 μM) at 37° C. for 30 min. After rinses with PBS (1×) several times, the medium was replaced and the fluorescence images were acquired with DAPI and Cy5.5 filters. The images were processed using the standard CRi Nuance software, analyzed using Image J software package (NIH), and presented at the same intensity scale for comparison.
HeLa cells in #1.5 borosilicate 8-well chambered coverslips (Nunc) were either incubated with C-SNAF (2 μM) alone or co-incubated with DOX (1, 2, and 5 μM) and 2 μM C-SNAF, 2 μM C-SNAF together with caspase inhibitor (Z-VAD-fmk, 50 μM), or control probes D-ctrl and L-ctrl at 2 μM for 24 h. Then the medium was removed, the cells were carefully washed with PBS (1×) three times, and stained with nuclear binding probe Hoechst 33342 (2 μM) at 37° C. for 30 min. After several rinses with PBS (1×), the medium was replaced and the fluorescence images were acquired with DAPI and […] filters.

caspase-3 = molecular target: T1, caspase-3 (Homo sapiens, UniProt P42574); experiment: HPLC assay of caspase-3-triggered macrocyclization of C-SNAF; type: biochemical; parameters: purchased Sigma; host or cells: E. coli; conditions: same conditions as C-SNAF; D-ctrl after 24 h
T1 sequence (P42574 29-175 limits assumed): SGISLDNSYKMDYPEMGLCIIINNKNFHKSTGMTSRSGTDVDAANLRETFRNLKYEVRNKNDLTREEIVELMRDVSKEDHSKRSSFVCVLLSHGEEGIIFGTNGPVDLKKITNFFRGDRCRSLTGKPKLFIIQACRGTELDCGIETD
T1 sequence (P42574 176-277 limits assumed): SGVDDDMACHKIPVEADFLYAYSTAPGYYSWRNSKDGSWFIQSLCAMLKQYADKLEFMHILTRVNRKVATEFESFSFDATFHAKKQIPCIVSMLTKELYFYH
Method: The progression of caspase-3-triggered macrocyclization of C-SNAF to form C-SNAF-cycl in solution was monitored using high-performance liquid chromatography (HPLC) following incubation of the probe (25 μM) with recombinant human caspase-3 (4.9×10^−[…]).
Caspase (human, recombinant from E. coli) assays were performed for caspase-3 (4.9×10^−3 U; 7.35×10^−4 mg, Sigma), −7 (18.3 U; 7.35×10^−4 mg, Calbiochem), and −9 (0.3 U; 7.35×10^−4 mg, Calbiochem). All caspase assays were conducted in caspase buffer with 50 mM HEPES, 100 mM NaCl, 1 mM EDTA, 10 mM TCEP, 10% glycerol, and 0.1% CHAPS at pH 7.4. Cathepsin B (human liver; 0.27 U; 7.35×10^−4 mg, Calbiochem) and Legumain (human, recombinant from mouse myeloma cell line; >250 pmol/min/μg; 7.35×10^−4 mg, R&D Systems) were conducted in reaction buffer with 50 mM sodium acetate, 50 mM NaCl, 0.5 mM EDTA and 10 mM TCEP at pH 5.5. C-SNAF was diluted in the respective enzyme reaction buffer (25 μM, 1 mL) and remained at room temperature for 10 min, to which was then added the respective enzymes. Reactions were performed at 37° C., and monitored by HPLC hourly. The percentage conversion of the reaction was calculated based on the percentage of peak area of C-SNAF-cycl in the HPLC trace at 675 nm UV detection, which indicated the efficacy of enzyme cleavage of C-SNAF.

[1] = tested on: STS-induced apoptotic HeLa cells; experiment: Flow cytometry of STS-induced apoptotic HeLa cells labeled with probes; type: cell-based, human; conditions: 2 μM probe, compared with C-SNAF
Method: Approximately 10^5 HeLa cells in 1 mL DMEM medium were seeded onto 12-well plates. […] For the inhibitor blocking experiment, the STS-treated cells were first incubated with the caspase inhibitor Z-VAD-fmk (50 μM, R&D Systems) for 30 min, and then 2 μM C-SNAF was added. All cells incubations were 24 h, followed by staining with FLICA (FAM) after trypsinization. After washing with PBS (1×) three times, the cell pellets were resuspended in 300 μL PBS and applied for flow cytometry analysis using the FITC and Cy5.5 channels. The cell number for each flow cytometry analysis was approximately 5000 to 10000, and the data was processed using FlowJo software.

[2] = mouse, in vivo, iv
subcutaneous HeLa tumors = experiment: In vivo fluorescence imaging of DOX-treated HeLa tumor-bearing mice; parameters: species or system mouse
Method: C-SNAF or either of the control probes (5 nmol) was administered intravenously to tumor-bearing mice and whole animal fluorescence was longitudinally monitored using a Maestro fluorescence imager.
as §1
Two days following the final treatment, 5 nmol probe in saline was injected intravenously and fluorescence imaging began immediately on a Maestro hyperspectral fluorescent imaging system (PerkinElmer, Mass., USA) using a 635±25 nm excitation filter and a 675 nm long-pass emission filter, with images acquired from 670 to 900 nm. Tissue autofluorescence and Cy5.5 fluorescence were deconvolved, and tumor fluorescence intensity was quantified by region of interest measurement using Nuance v.3.0.1.2 software (Perkin Elmer, Mass., USA).

For `CCSSCC(NC(=O)C(CC(=O)O)NC(=O)C(NC(=O)C(CCC(=O)O)NC(=O)C(CC(=O)O)NC(C)=O)C(C)C)C(=O)NC(CCCCNC(=O)CN1CCN(CC(=O)[O-])CCN(CC(=O)[O-])CCN(CC(=O)[O-])CC1)C(=O)Nc1ccc2nc(C3=NC(C(=O)NCCCOc4ccc5nc(C#N)ccc5c4)CS3)sc2c1.[Eu+3]` (stereo not drawn) [1-Eu^3+ (16)] (Ac-DEVDC(SEt)K(DOTA)[X1]-X2; configuration not given here), the “fluorescent signal in apoptotic cells” value (apoptotic cells) was “strong fluorescent signal in apoptotic cells”.
In the case of `COc1cccc2c1C(=O)c1c(O)c3c(c(O)c1C2=O)C[C@@](O)(C(=O)CO)C[C@@H]3O[C@H]1C[C@H](N)[C@H](O)[C@H](C)O1` [DOX, doxorubicin], the “increase in caspase-3/7 activity in tumor lysates versus saline” value (caspase-3/7 activity) is reported as “approximately 2 fold”, the “increase of caspase-3 level in treated tumors” value (caspase-3 level) is reported as 1.9 fold and the “caspase-3 activity of lysates of treated versus non-treated cells” value (caspase-3 activity) is reported as 9.5 fold. The “tumor growth rate relative to saline” value (HeLa tumor xenograft) was “significant decrease in tumor growth rates”.
With `CC[N+]1=C(C=CC=CC=C2N(CCCCCC(=O)NCCCCC(NC(=O)C(CSC)NC(=O)C(CC(=O)O)NC(=O)C(NC(=O)C(CCC(=O)O)NC(=O)C(CC(=O)O)NC(C)=O)C(C)C)C(=O)Nc3ccc4nc(C5=NC(C(=O)NCCCOc6ccc7ncccc7c6)CS5)sc4c3)c3ccc4c(S(=O)(=O)O)cc(S(=O)(=O)O)cc4c3C2(C)C)C(C)(C)c2c1ccc1c(S(=O)(=O)O)cc(S(=O)(=O)[O-])cc21` [L-ctrl] the “fluorescence of apoptotic cells compared to C-SNAF” value (apoptotic HeLa cells) was “relatively weaker fluorescence”, the “products observed after incubation with caspase-3” value (caspase-3) was “only the caspase-3-mediated DEVD-cleavage hydrolysis product” and the “fluorescent intensity of apoptotic cells incubated with control probes” value [1] was “much lower fluorescent intensity”. For the same compound, the blood half-life [2] was 30 ± 16.8 min, the “correlation (r) of maximum tumor fluorescence with maximum tumor size change” value (subcutaneous HeLa tumors; 3×DOX-treated mice, 1 h after probe) was “no significant correlation” and the “average signal enhancement between DOX- and saline-treated tumors” value (subcutaneous HeLa tumors; 4 h after probe administration) was 0.24%. For the same compound, the “tumor fluorescence lower than that of C-SNAF” value (subcutaneous HeLa tumors; DOX-treated mice, 1 h) was 18%.
